# Reference: patent US10716305B2, “Anti-bacterial compositions” (priority 2015, dated 2020)
# Read-outs that look alike come from different tables or passages of the source.
# Key:
# [1] = tested on: MatTek EpiDerm tissue (Reconstructed Human Epidermis); assay: MatTek EpiDerm Skin Irritation Test (SIT); assay type: cell-based; details: 60 minutes treatment
# Method: This test was conducted to predict dermal irritation potential of test articles in the context of identification and classification of skin irritation hazard according to the European Union (EU) classification ([…] or no label), United Nations Globally Harmonized System of Classification and Labeling of Chemicals (GHS) classification system (Category 2 and non-irritants), and OECD Guideline for the Testing of Chemicals No. 439-In Vitro Skin Irritation: Reconstructed Human Epidermis Test Method. This study was designed based on MatTek protocol in vitro EpiDermTM Skin Irritation Test. MatTek EpiDermTM tissue samples were treated in triplicate with the test composition, Negative Control and Positive Control for 60 minutes. Following treatment and subsequent incubation time, the viability of the tissues was determined using Methyl thiazole tetrazolium (MTT) uptake and reduction. The absorbance of each sample was measured at 540 nm. The viability was then expressed as a percent of control values. If the mean tissue viability was ≤50%, the test material was classified as an irritant; if the mean tissue viability was […].
# [2] = tested on: bovine corneas; assay: OECD Bovine Corneal Opacity and Permeability Test (BCOP); details: 0.75 ml, 10-minute exposure
# Method: This protocol is based on the methodology described in the current OECD Guideline for the Testing of Chemicals #437.
# Following a 10-minute exposure for each group of dosed corneas, opacity measurements and sodium fluorescein permeability were determined.
# [3] = tested on: BALB/C 3T3 mouse fibroblast cell line; assay: 3T3 Neutral Red Uptake Phototoxicity Assay; assay type: cell-based; details: for EC50: Mus musculus
# Method: The cytotoxicity and phototoxicity of the test composition to 3T3 cells (in the presence or absence of UVA light) was assessed by Neutral Red Uptake. The 3T3 Neutral Red Uptake Phototoxicity Assay (3T3 NRU PT), based on the OECD Guideline for Testing of Chemicals: […] An Ultraviolet-Visible light (UV-VIS) spectral scan was performed on a solution containing 0.1% of the test composition in a solution of 1% DMSO/HBSS. […] For both the range-finding screen and the definitive test of the 3T3 assay, BALB/C 3T3 cells were seeded in the central 60 wells of duplicate 96-well microplates and maintained in culture for approximately 24 hours. The two 96-well plates were then preincubated with eight different concentrations of the test composition for approximately one hour. After preincubation, one plate was irradiated with a dose of 5 J/cm^2 Solar Simulated Light (SSL, containing wavelengths in the UVA and visible regions with >99% of UVB blocked out), while the duplicate plate was kept in the dark (No SSL). After UV irradiation, the treatment medium was replaced with culture medium and, after approximately 24 hours, cell viability was determined by neutral red uptake for three hours. A range finding screen was performed to determine the acceptable concentrations for the definitive test. MS Excel® was used to calculate the EC50 values and Photo-Irritant Factor (PIF) for the test article and the Chlorpromazine (CPZ) positive control in both the Screen and the Definitive test.
# [4] = tested on: MRSA; assay: Comparative efficacy study, oral gavage, MRSA induction IP; assay type: in vivo, BALB/C mice; details: oral treatment for 7 days, Composition A 100 mg/kg, antibiotics per RX dose converted to mice
# Method: Efficacy Study in comparison to leading anti-MRSA antibiotics was conducted in BALB/C mice.
# 7a. Administration Route: Oral Gavage
# Group 1 (6 mice males)—MRSA Induction IP no treatment
# Group 2 (6 mice males)—MRSA Induction IP—oral treatment for 7 days
# Group 3 (6 mice males)—No Induction—oral treatment for 7 days
# For the antibiotics the dose was as per RX prescription converted to mice Body Weights.
# 1—Erythromycin 250 mg/pt b.i.d. equals 2.1 mg/20 g mouse/day 300 mg total/12 mice
# 2—Clindamycin 150 mg/pt b.i.d. equals 1.25 mg/20 g mouse/day 200 mg total/12 mice
# 3—Vancomycine 250 mg/pt b.i.d. equals 2.1 mg/20 g mouse/day 300 mg total/12 mice
compound,measurement,setting,value
"CCCCCCCCCCCCOS(=O)(=O)[O-].[Na+] [5% Sodium Dodecyl Sulfate, Sodium Dodecyl Sulfate]",Irritancy Classification,[1],"Irritant (mean tissue viability was ≤50%, the test material was classified as an irritant)"
same,Mean Tissue Viability,"[1]; MTT, percent of control",3.1%
"CCO [100% Ethanol, Ethanol]",Corrected Mean Opacity Score,[2],22.66
same,In Vitro Irritation Score (IVIS),[2],32.34
"CN(C)CCCN1c2ccccc2Sc2ccc(Cl)cc21 [CPZ, Chlorpromazine]",EC50,"[3]; BALB/c3T3, light or radiation study, 5 J/cm^2 Solar Simulated Light, range tested 0.22-3.16 μg/ml, read-out: EC50 + SSL",0.4 µg/mL
same,EC50,"[3]; BALB/c3T3, dark, range tested 6.81-100 μg/ml, read-out: EC50 No SSL",18.8 µg/mL
same,PIF (Photo-Irritant Factor),[3]; definitive test,47.0
CC[C@H]1OC(=O)[C@H](C)[C@@H](O[C@H]2C[C@@](C)(OC)[C@@H](O)[C@H](C)O2)[C@H](C)[C@@H](O[C@@H]2O[C@H](C)C[C@H](N(C)C)[C@H]2O)[C@](C)(O)C[C@@H](C)C(=O)[C@H](C)[C@@H](O)[C@]1(C)O [Erythromycin],blood cell culture,[4],two colonies
"CN[C@H](CC(C)C)C(=O)N[C@H]1C(=O)N[C@@H](CC(N)=O)C(=O)N[C@H]2C(=O)N[C@H]3C(=O)N[C@H](C(=O)N[C@H](C(=O)O)c4cc(O)cc(O)c4-c4cc3ccc4O)[C@H](O)c3ccc(c(Cl)c3)Oc3cc2cc(c3O[C@@H]2O[C@H](CO)[C@@H](O)[C@H](O)[C@H]2O[C@H]2C[C@](C)(N)[C@H](O)[C@H](C)O2)Oc2ccc(cc2Cl)[C@H]1O [vancomycin, Vancomycin]",blood cell culture,[4],one colony
